Assay results from patent US20240390293A1, “DERIVATIVES OF THE PROTECTIN 10S,17S-DIHDA (PDX) AND USE THEREOF AS ANTIVIRAL, ANTI-INFLAMMATORY, AND ANTI-DIABETIC AGENTS” (priority 2021, published 2024).
Where two headings read alike, the source gives them in different places.

Tests used:
[1] = system: influenza A/Puerto Rico/8/34 (H1N1); type: cell-based; conditions: A549 cells, 24 hours
[2] = system: interleukin-6 (IL-6) release; conditions: skeletal muscle cells; PDX at submicromolar concentrations; cited from earlier work
iNOS = experiment: LPS-induced iNOS activity (nitrite production, Griess method) in J774 macrophages; type: cell-based, mice; conditions: for IC50: Mus musculus; for nitrite production in LPS-induced J774 mice macrophages: LPS 2.5 ng/ml, 18 h, dose-dependent
Method: J774A.1 macrophages are grown in DMEM, supplemented with 10% Bovine Growth Serum (BGS) and 1% penicillin-streptomycin (PS). The J774A.1 macrophages are subsequently stimulated with LPS 2.5 ng/ml in DMEM supplemented with 10% BGS and 1% PS for 16 h-18 h. […] After incubation, the level of inflammation is evaluated by measuring the nitrite content in the medium by using the Griess method and normalized by protein concentration.

SARS-CoV-2 [3] = experiment: Plaque Reduction Assay (PRA) of SARS-CoV-2 replication on VERO E6 cells; type: cell-based
SARS-CoV-2 [4] = experiment: SARS-CoV-2 infected hamsters: viral titers and weight variation; type: in vivo, Golden Syrian hamsters
Method: Animal Studies. 5-6 Week-old Golden Syrian hamsters were infected with 4.5 log PFU of original SARS-CoV-2 strain. On days 1, 2 and 3, or 1 to 5 post-infection, the animals were treated intraperitoneally with either Remdesivir (15 mg/kg), analog RM-598-48 (50 mg/kg), Remdesivir (15 mg/kg)+analog RM-598-48 (50 mg/kg), analog RM-598-44 (50 mg/kg), or with vehicle only (FIG. 28). The hamsters were monitored daily over a period of 14 days for clinical symptoms and weight loss. On day 4 post-infection, nasal turbinates and lungs were harvested to assess viral replication. All animal studies were approved by the Animal Protection Committee of the Centre Hospitalier Universitaire de Québec according to the Canadian Council on Animal Care guidelines.
Viral titers. Viral titers were determined in cell culture to characterize the presence of live virus. Ten-fold dilutions of nasal turbinates and lung homogenates were performed in infection medium. After one week of infection, titers were determined and reported in TCID50 per gram of organ.

[5] = LPS-stimulated J774 macrophages, nitrite by Griess method, read-out: Anti-inflammatory Activity on iNOS IC50
[6] = Severe acute respiratory syndrome coronavirus 2, Vero C1008, VERO E6 cells, plaque reduction assay, read-out: SARS-COV-2 Inhibition IC50
[7] = 50 mg/kg IP from day 1 until day 5 post-infection
[8] = Severe acute respiratory syndrome coronavirus 2, Vero C1008, read-out: SARS-COV-2 Inhibition (%)

Structure (SMILES): O=C1c2c(O)c(=O)ccn2N([C@@H]2c3ccccc3SCc3c2ccc(F)c3F)[C@@H]2COCCN12 [BXA, Baloxavir acid]
- decrease in the viral charge ([1]; 5 μM): 88%

Structure (SMILES): CC/C=C\C[C@H](O)\C=C/C=C/C=C/[C@H](O)C/C=C\C/C=C\CCC(=O)O [PD1, protectin D1]
- decrease in the viral charge ([1]; 50 μM): 10%
- release of interleukin-6 (IL-6) [2]: ineffective

Structure (SMILES): CC/C=C\C[C@H](O)/C=C/C=C\C=C\[C@@H](O)C/C=C\C/C=C\CCC(=O)O [PDX, 10S, 17S-diHDA, reference compound]
- release of interleukin-6 (IL-6) [2]: induce the release
- IC50 (iNOS; [5]): 96 µM
- inhibition at 5 µM (SARS-CoV-2 [3]; Severe acute respiratory syndrome coronavirus 2, Vero C1008, 5 μM, VERO E6 cells, plaque reduction assay, read-out: SARS-COV-2 Inhibition (%)): 0%
- inhibition at 50 µM (SARS-CoV-2 [3]; Severe acute respiratory syndrome coronavirus 2, Vero C1008, 50 μM, VERO E6 cells, plaque reduction assay, read-out: SARS-COV-2 Inhibition (%)): 18%

Structure (SMILES): CC/C=C\C[C@H](O)/C=C/C=C\C=C\[C@@H](O)CCOc1ccc(C)cc1 [PDX-1]
- nitrite production in LPS-induced J774 mice macrophages (iNOS): reduced nitrite production
- IC50 (iNOS; [5]): 11 µM

Structure (SMILES): CC/C=C\C[C@H](O)/C=C/C=C\C=C\[C@@H](O)CCOc1ccc(CC(=O)OC)cc1 [PDX-2]
- nitrite production in LPS-induced J774 mice macrophages (iNOS): reduced nitrite production
- IC50 (iNOS; [5]): 64 µM
- IC50 (SARS-CoV-2 [3]; [6]): 33 µM
- weight loss (weight variation, % of initial weight) (SARS-CoV-2 [4]; [7]): significantly limit weight loss
- weight loss (weight variation, % of initial weight) (SARS-CoV-2 [4]; 50 mg/kg IP on days 1, 2 and 3 post-infection, significant at days 3, 9, 11, 12 and 14): significantly limit weight loss
- viral loads in nasal turbinates (SARS-CoV-2 [4]; 50 mg/kg IP on days 1, 2 and 3 post-infection, titers on day 4, vs untreated hamsters): significantly different from the untreated hamsters

Structure (SMILES): CC/C=C\C[C@H](O)/C=C/C=C\C=C\[C@@H](O)CCNCCCCCC [PDX-6]
- nitrite production in LPS-induced J774 mice macrophages (iNOS): reduced nitrite production
- IC50 (iNOS; [5]): 50 µM
- IC50 (SARS-CoV-2 [3]; [6]): 29 µM

Structure (SMILES): CC/C=C\C[C@H](O)/C=C/C=C\C=C\[C@@H](O)CCN1CCCCC1 [PDX-7]
- nitrite production in LPS-induced J774 mice macrophages (iNOS): reduced nitrite production

Structure (SMILES): CC/C=C\C[C@H](O)/C=C/C=C/C=C/[C@@H](O)CCN1CCCCC1 [PDX-10]
- nitrite production in LPS-induced J774 mice macrophages (iNOS): reduced nitrite production
- IC50 (iNOS; [5]): 32 µM
- IC50 (SARS-CoV-2 [3]; [6]): 56 µM

Structure (SMILES): CC/C=C\C[C@H](O)/C=C/C=C\C=C\[C@@H](O)CCOc1ccc(C(=O)OC)cc1 [PDX-16]
- nitrite production in LPS-induced J774 mice macrophages (iNOS): reduced nitrite production

Structure (SMILES): CC/C=C\C[C@H](O)/C=C/C=C\C=C\[C@@H](O)CCOc1ccncc1 [PDX-17]
- nitrite production in LPS-induced J774 mice macrophages (iNOS): reduced nitrite production

Structure (SMILES): CC/C=C\C[C@H](O)/C=C/C=C\C=C\[C@@H](O)CCOc1ccc2ccc(=O)oc2c1 [PDX-18]
- nitrite production in LPS-induced J774 mice macrophages (iNOS): reduced nitrite production

Structure (SMILES): CC/C=C\C[C@H](O)/C=C/C=C\C=C\[C@@H](O)CCOc1ccc(C(=O)O)cc1 [PDX-19]
- nitrite production in LPS-induced J774 mice macrophages (iNOS): reduced nitrite production

Structure (SMILES): CC/C=C\C[C@H](O)/C=C/C=C\C=C\[C@@H](O)CCNCCC [PDX-20]
- nitrite production in LPS-induced J774 mice macrophages (iNOS): reduced nitrite production

Structure (SMILES): CC/C=C\C[C@H](O)/C=C/C=C\C=C\[C@@H](O)CCOc1cccc(CC(=O)O)c1 [PDX-21]
- nitrite production in LPS-induced J774 mice macrophages (iNOS): reduced nitrite production

Structure (SMILES): CC/C=C\C[C@H](O)/C=C/C=C\C=C\[C@@H](O)CCOc1cccc(CC(=O)OC)c1 [PDX-22]
- nitrite production in LPS-induced J774 mice macrophages (iNOS): reduced nitrite production

Structure (SMILES): CC/C=C\C[C@H](O)/C=C/C=C\C=C\[C@@H](O)CCOc1ccc(CC(=O)NC)cc1 [PDX-23]
- nitrite production in LPS-induced J774 mice macrophages (iNOS): reduced nitrite production

Structure (SMILES): CC/C=C\C[C@H](O)/C=C/C=C\C=C\[C@@H](O)CCOc1ccc(CC(N)=O)cc1 [PDX-24]
- decrease in the viral charge ([1]; 50 μM): 39%
- nitrite production in LPS-induced J774 mice macrophages (iNOS): reduced nitrite production

Structure (SMILES): CC/C=C\C[C@H](O)C#C/C=C\C#C[C@@H](O)CCO [PDX-Al-1]
- nitrite production in LPS-induced J774 mice macrophages (iNOS): reduced nitrite production
- IC50 (iNOS; J774, read-out: Anti-inflammatory Activity on iNOS IC50): 18 µM
- inhibition at 5 µM (SARS-CoV-2 [3]; [8]): 40%
- inhibition at 50 µM (SARS-CoV-2 [3]; [8]): 30%
- weight loss (weight variation, % of initial weight) (SARS-CoV-2 [4]; [7]): tendency to limit weight loss, but not in a significant manner

Structure (SMILES): O=c1c(O)c(-c2ccc(O)c(O)c2)oc2cc(O)cc(O)c12 [Quercetin, reference compound]
- nitrite production in LPS-induced J774 mice macrophages (iNOS): reduced nitrite production

Structure (SMILES): CCC(CC)COC(=O)[C@H](C)N[P@](=O)(OC[C@H]1O[C@@](C#N)(c2ccc3c(N)ncnn23)[C@H](O)[C@@H]1O)Oc1ccccc1 [Remdesivir, reference compound]
- IC50 (SARS-CoV-2 [3]; Severe acute respiratory syndrome coronavirus 2, Vero C1008, read-out: SARS-COV-2 Inhibition IC50): 3.9 µM
